The target in one assay is T1, human NK1R (Homo sapiens, UniProt P25103).
T1 construct: expressed in transfected cells
The assay can be described thus: Binding assay of human NK1R expressed in COS or CHO cells, displacement of 125I-substance P (Table 1, hNK1). The following applies: human NK1 receptor, 125I-substance P ligand; read-out: hNK1 (IC50 nM). As for the experimental part: (§1) A. Receptor Expression in COS
(§2) To express the cloned human neurokinin-1 receptor (NK 1R) transiently in COS, the cDNA for the human NK 1R was cloned into the expression vector pCDM9 which was derived from pCDM 8 (INVITROGEN) by inserting the ampicillin resistance gene (nucleotide 1973 to 2964 from BLUESCRIPT SK+) into the Sac II site. Transfection of 20 μg of the plasmid DNA into 10 million COS cells was achieved by electroporation in 800 μl of transfection buffer (135 mM NaCl, 1.2 mM CaCl2, 1.2 mM MgCl2, 2.4 mM K2 HPO4, 0.6 mM KH2 PO4, 10 mM glucose, 10 mM HEPES pH 7.4) at 260 V and 950 uF using the IBI GENEZAPPER (IBI, New Haven, Conn.). The cells were incubated in 10% fetal calf serum, 2 mM glutamine, 100 U/ml penicillin-streptomycin, and 90% DMEM media (GIBCO, Grand Island, N.Y.) in 5% CO2 at 37° C. for three days before the binding assay. Similar methods were used to express the NK2 receptor.
(§3) B. Stable Expression in CHO
(§4) To establish a stable cell line expressing the cloned human NK1R, the cDNA was subcloned into the vector pRcCMV (INVITROGEN). Transfection of 20 μg of the plasmid DNA into CHO cells was achieved by electroporation in 800 μl of transfection buffer suplemented with 0.625 mg/ml Herring sperm DNA at 300 V and 950 uF using the IBI GENEZAPPER (IBI). The transfected cells were incubated in CHO media (10% fetal calf serum, 100 U/ml pennicilin-streptomycin, 2 mM glutamine, 1/500 hypoxanthine-thymidine(ATCC), 90% IMDM media (JRH BIOSCIENCES, Lenexa, Kans.), 0.7 mg/ml G418 (GIBCO)) in 5% CO2 at 37° C. until colonies were visible. Each colony was separated and propagated. The cell clone with the highest number of human NK1R was selected for subsequent applications such as drug screening. Similar methods were used to express the human NK2 receptor.
(§5) C. Assay Protocol using COS or CHO The binding assay of human NK1R expressed in either COS or CHO cells is based on the use of ^125 I-substance P (^125 I-SP, from DU PONT, Boston, Mass.) as a radioactively labeled ligand which competes with unlabeled substance P or any other ligand for binding to the human NK1R. […] In the binding assay, 500 μl of cells were added to a tube containing 20 μl of 1.5 to 0.25 nM of ^125 I-SP and 5 μl of unlabeled substance P or any other test compound in DMSO. The tubes were incubated at 4° C. or at room temperature for 1 hour with gentle shaking. The bound radioactivity was separated from unbound radioactivity by GF/C filter (BRANDEL, Gaithersburg, Md.) which was pre-wetted with 0.1% polyethylenimine. The filter was washed with 3 ml of wash buffer (50 mM Tris pH 7.5, 5 mM MnCl2, 150 mM NaCl) three times and its radioactivity was determined by gamma counter. A similar assay was used for NK2 except ^125 I-NKA was used as the ligand.
On the technique in general: Loss of bound radioactivity is the signal in a displacement assay; it reports binding, not function.

The target of the next assay is T2, human NK2 receptor (Homo sapiens, UniProt P21452).
T2 construct: expressed in transfected cells
T2 sequence (P21452 1-398): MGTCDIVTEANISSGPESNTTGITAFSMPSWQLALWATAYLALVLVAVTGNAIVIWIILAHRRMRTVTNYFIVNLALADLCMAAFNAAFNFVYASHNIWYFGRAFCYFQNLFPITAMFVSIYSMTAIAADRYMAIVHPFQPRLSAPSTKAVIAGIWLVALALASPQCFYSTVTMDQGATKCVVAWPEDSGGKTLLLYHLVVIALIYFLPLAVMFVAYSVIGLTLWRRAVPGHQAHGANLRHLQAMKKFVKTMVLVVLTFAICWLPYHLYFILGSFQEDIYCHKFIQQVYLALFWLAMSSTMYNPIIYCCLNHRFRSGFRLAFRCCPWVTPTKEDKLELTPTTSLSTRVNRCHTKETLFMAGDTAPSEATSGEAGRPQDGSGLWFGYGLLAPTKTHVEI
The assay can be described thus: Binding assay of NK2 receptor expressed in COS or CHO cells, displacement of 125I-NKA (Table 1, hNK2). The following applies: human NK2 receptor, 125I-NKA ligand; read-out: hNK2 (IC50 nM). On the procedure: as §1, §2, §3, §4, §5

In general, IC50 refers to the midpoint of a concentration-inhibition curve.

T1 sequence (P25103 whole entry): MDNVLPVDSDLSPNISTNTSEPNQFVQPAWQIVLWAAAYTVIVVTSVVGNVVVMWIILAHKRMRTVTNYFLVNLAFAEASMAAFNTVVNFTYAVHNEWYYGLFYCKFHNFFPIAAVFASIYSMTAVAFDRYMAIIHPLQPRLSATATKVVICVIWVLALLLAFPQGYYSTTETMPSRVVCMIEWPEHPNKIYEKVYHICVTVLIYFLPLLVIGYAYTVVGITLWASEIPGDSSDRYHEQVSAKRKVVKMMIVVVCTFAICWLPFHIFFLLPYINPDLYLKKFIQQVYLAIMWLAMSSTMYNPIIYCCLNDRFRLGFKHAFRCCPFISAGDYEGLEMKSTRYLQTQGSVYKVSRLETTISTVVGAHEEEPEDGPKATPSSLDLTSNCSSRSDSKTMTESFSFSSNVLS

In the case of `Cc1cccc(CN(C)C(=O)[C@H](Cc2c[nH]c3ccccc23)NC(=O)N2CCC3(CC2)CN(S(C)(=O)=O)c2ccccc23)c1` [Example 25, N-(3-Methylphenyl)methyl-N-methyl-2-(S)-((1-methanesulfonyl-spiroindoline-3,4'-piperidino)-carbonyl-amino)-3-(3-indolyl)propionamide], the IC50 came out at 8 nM on human NK1R and 85 nM on human NK2 receptor.
In the same order, the values of `CN(Cc1cccc(C(F)(F)F)c1)C(=O)[C@H](Cc1c[nH]c2ccccc12)NC(=O)N1CCC2(CC1)CN(S(C)(=O)=O)c1ccccc12` [Example 26, N-(3-Trifluoromethylphenyl)methyl-N-methyl-2-(S)-((1-methanesulfonyl-spiroindoline-3,4'-piperidino)-carbonyl-amino)-3-(3-indolyl)propionamide] are 7.5 nM and 127 nM.
In the same order, the values of `CN(Cc1cc(Cl)cc(Cl)c1)C(=O)[C@H](Cc1c[nH]c2ccccc12)NC(=O)N1CCC2(CC1)CN(S(C)(=O)=O)c1ccccc12` [Example 27, N-(3,5-Dichlorophenyl)methyl-N-methyl-2-(S)-((1-methanesulfonyl-spiroindoline-3,4'-piperidino)-carbonyl-amino)-3-(3-indolyl)propionamide] are 1 nM and 180 nM.
In the same order, the values of `Cc1cc(C)cc(CN(C)C(=O)[C@H](Cc2c[nH]c3ccccc23)NC(=O)N2CCC3(CC2)CN(S(C)(=O)=O)c2ccccc23)c1` [Example 28, N-(3,5-Dimethylphenyl)methyl-N-methyl-2-(S)-((1-methanesulfonyl-spiroindoline-3,4'-piperidino)-carbonyl-amino)-3-(3-indolyl)propionamide] are 3 nM and above 300 nM.
On to `Cc1cc(Cl)cc(CN(C)C(=O)[C@H](Cc2c[nH]c3ccccc23)NC(=O)N2CCC3(CC2)CN(S(C)(=O)=O)c2ccccc23)c1` [Example 29, N-((3-Chloro-5-methyl)phenyl)methyl-N-methyl-2-(S)-((1-methanesulfonyl-Spiroindoline-3,4'-piperidino)-carbonyl-amino)-3-(3-indolyl)propionamide], for which the IC50 on human NK1R was found to be 2 nM; at human NK2 receptor, 500 nM.
In the same order, the values of `CN(Cc1ccccc1)C(=O)[C@@H](Cc1c[nH]c2ccccc12)NC(=O)N1CCC2(C=Cc3ccccc32)CC1` [Example 31, N-Benzyl-N-methyl-2-(R)-((spiro-1H-indene-1,4'-piperidino)-carbonyl-amino)-3-(3-indolyl)propionamide] are 600 nM and 130 nM.
With `CN(Cc1ccccc1)C(=O)[C@@H](Cc1c[nH]c2ccccc12)NC(=O)N1CCC2(CC1)CN(S(C)(=O)=O)c1ccccc12` [Example 32, N-Benzyl-N-methyl-2-(R)-((1-methanesulfonyl-spiroindoline-3,4'-piperidino)-carbonyl-amino)-3-(3-indolyl)propionamide], the IC50 on human NK1R is 200 nM; at human NK2 receptor, 180 nM.
In the same order, the values of `CN(Cc1ccccc1)C(=O)[C@@H](Cc1c[nH]c2ccccc12)NC(=O)N1CCC(c2ccccc2)CC1` [Example 33] are 750 nM and 250 nM.
In the same order, the values of `CN(Cc1ccccc1)C(=O)[C@H](CCc1ccccc1)NC(=O)N1CCC2(CC1)CN(S(C)(=O)=O)c1ccccc12` [Example 34, N-Benzyl-N-methyl-2-(S)-((1-methanesulfonyl-spiroindoline-3,4'-piperidino)-carbonyl-amino)-4-phenylbutyramide] are 400 nM and 60 nM.
In the same order, the values of `CN(Cc1ccccc1)C(=O)[C@H](COCc1ccccc1)NC(=O)N1CCC2(CC1)CN(S(C)(=O)=O)c1ccccc12` [Example 35, N-Benzyl-N-methyl-2-(S)-((1-methanesulfonyl-spiroindoline-1,4'-piperidino)-carbonyl-amino)-3-benzyloxypropionamide] are 300 nM and 60 nM.
As for `CN(Cc1ccccc1)C(=O)[C@H](Cc1ccccc1)NC(=O)N1CCC2(C=Cc3ccccc32)CC1` [Example 36, N-Benzyl-N-methyl-2-(S)-((spiroindine-1,4'-piperidino)-carbonyl-amino)-3-phenylpropionamide], the results for the half-maximal inhibitory concentration (IC50) on human NK1R and at human NK2 receptor were 300 nM and 200 nM, respectively.
In the same order, the values of `CN(Cc1ccccc1)C(=O)[C@@H](NC(=O)N1CCC2(C=Cc3ccccc32)CC1)c1ccccc1` [Example 37, N-Benzyl-N-methyl-2-(S)-((spiroindine-1,4'-piperidino)-carbonyl-amino)-2-phenylacetamide] are 575 nM and 200 nM.
“N-(1(R)-Phenylpropyl)-N-methyl-2(S)-((spiroindane-1,4'-piperidino)-carbonyl-amino)-3-(3-indolyl)propionamide [Example 24]”: the IC50 at human NK1R turned out to be 1000 nM; at human NK2 receptor, 50 nM.
With “N-(1(S)-Phenylpropyl)-N-methyl-2(S)-((spiroindane-1,4'-piperidino)-carbonyl-amino)-3-(3-indolyl)propionamide [Example 23]”, the IC50 was found to be 650 nM on human NK1R and 30 nM on human NK2 receptor.
In the same order, the values of “N-(1(S)-phenyl)ethyl-N-methyl-2-(S)-((1-methanesulfonyl-spiroindoline-3,4'- piperidino)-carbonyl-amino)-3-(3-indolyl)propionamide [Example 30]” are 10 nM and 70 nM.

(Values after patent publication US5869489A, “Trypthophan ureas as neurokinnin antagonists” (Merck & Co., Inc., priority 1997, dated 1999).)
